In the NIST ThermoML archive (doi:10.1021/acs.jced.8b00236):

Experiment: mn = molality of the nth substance listed, in mol/kg
Details: 75 kPa, Liquid; for viscosity: Capillary tube (Ostwald / Ubbelohde) method; for speed of sound: Frequency=3 MHz, Single path-length method; for mass density: Vibrating tube method

NCC(=O)O [2-aminoacetic acid] + O
Details | mass density [kg/m3] | speed of sound [m/s] | viscosity [mPa·s]
288.15 K, m1 = 0.1393 | 1003.55 | 1474.2 | 1.166
288.15 K, m1 = 0.2791 | 1007.86 | 1482 | 1.185
288.15 K, m1 = 0.4196 | 1012.03 | 1489.7 | 1.205
288.15 K, m1 = 0.56 | 1016.03 | 1497.4 | 1.226
288.15 K, m1 = 0.7019 | 1019.92 | 1505 | 1.248
288.15 K, m1 = 0.8453 | 1023.68 | 1512.6 | 1.27
288.15 K, m1 = 0.9876 | 1027.24 | 1520.1 | 1.295
288.15 K, m1 = 1.132 | 1030.68 | 1527.5 | 1.318
293.15 K, m1 = 0.1393 | 1002.61 | 1490.2 | 1.025
293.15 K, m1 = 0.2791 | 1006.87 | 1497.7 | 1.044
293.15 K, m1 = 0.4196 | 1010.97 | 1505.2 | 1.064
293.15 K, m1 = 0.56 | 1014.91 | 1512.5 | 1.084
293.15 K, m1 = 0.7019 | 1018.74 | 1519.8 | 1.104
293.15 K, m1 = 0.8453 | 1022.45 | 1527 | 1.125
293.15 K, m1 = 0.9876 | 1025.96 | 1534 | 1.146
293.15 K, m1 = 1.132 | 1029.37 | 1541 | 1.166
298.15 K, m1 = 0.1393 | 1001.4 | 1504.1 | 0.912
298.15 K, m1 = 0.2791 | 1005.6 | 1511.4 | 0.929
298.15 K, m1 = 0.4196 | 1009.68 | 1518.7 | 0.946
298.15 K, m1 = 0.56 | 1013.59 | 1525.8 | 0.964
298.15 K, m1 = 0.7019 | 1017.38 | 1532.8 | 0.982
298.15 K, m1 = 0.8453 | 1021.05 | 1539.8 | 0.999
298.15 K, m1 = 0.9876 | 1024.54 | 1546.6 | 1.011
298.15 K, m1 = 1.132 | 1027.89 | 1553.3 | 1.026
303.15 K, m1 = 0.1393 | 999.949 | 1516.3 | 0.82
303.15 K, m1 = 0.2791 | 1004.11 | 1523.4 | 0.839
303.15 K, m1 = 0.4196 | 1008.15 | 1530.5 | 0.853
303.15 K, m1 = 0.56 | 1012.03 | 1537.5 | 0.869
303.15 K, m1 = 0.7019 | 1015.8 | 1544.3 | 0.885
303.15 K, m1 = 0.8453 | 1019.44 | 1551.2 | 0.901
303.15 K, m1 = 0.9876 | 1022.91 | 1557.8 | 0.913
303.15 K, m1 = 1.132 | 1026.27 | 1564.5 | 0.929
308.15 K, m1 = 0.1393 | 998.286 | 1526.7 | 0.734
308.15 K, m1 = 0.2791 | 1002.41 | 1533.6 | 0.752
308.15 K, m1 = 0.4196 | 1006.42 | 1540.5 | 0.772
308.15 K, m1 = 0.56 | 1010.28 | 1547.2 | 0.785
308.15 K, m1 = 0.7019 | 1014.04 | 1553.9 | 0.804
308.15 K, m1 = 0.8453 | 1017.7 | 1560.5 | 0.815
308.15 K, m1 = 0.9876 | 1021.16 | 1567 | 0.825
308.15 K, m1 = 1.132 | 1024.55 | 1573.4 | 0.839
